Here are results for 20 molecules from PMC11648822, “Lactam Truncation Yields a Dihydroquinazolinone Scaffold with Potent Antimalarial Activity that Targets PfATP4” (Chemmedchem, 2024).

Data set [1] in a line: Human liver microsome stability. The format is in vitro ADME. The note with it: human liver microsomes; for microsomal CLint: read-out: HLM CLint. The source says:
(§1) Human liver microsome stability, rat hepatocyte stability, aqueous solubility and eLogD are platform assays conducted by TCG Lifesciences and undertaken using previously described protocols.[10]
(Microsomes from liver hold many membrane-bound enzymes, among them those of drug oxidation.)

A short description of a further data set: Rat hepatocyte stability. The format is in vitro ADME. The conditions noted are these: rat hepatocytes; for hepatocyte CLint: read-out: Rat Hep CLint.
From the text: as §1

Data set [2] can be described thus: Aqueous solubility (pH 7.4). The data set is classed as physicochemical.
From the text: as §1

The nature of a further data set: eLogD shake-flask method. The data set is classed as physicochemical.
From the text: as §1

In data set [3] the test system is P. falciparum (Pf) 3D7 parasites. Kind of data set: P. falciparum LDH viability assay. The note with it: Plasmodium falciparum, 3D7, 72 h, LDH activity at 72 h; mean and SD of 3 independent experiments. The format is cell-based. An excerpt: This assay is a platform assay conducted at the Walter and Eliza Hall Institute and uses a protocol previously decsribed.[30, 31]

Data set [4] is described as follows: Human HepG2 cytotoxicity assay (Cell Titre Glo). The data set is classed as cell-based. The conditions noted are these: HepG2 cells, growth inhibition at 48 h, 4 replicate experiments, read-out: HepG2 CC50 (SD). The source says:
This assay uses Cell TitreGlo as a metabolic maker for human HepG2 cell growth and uses a protocol previously described.[32]

Setting [5] is: aqueous medium (pH 7.4; buffer not named), pH 7.4, aqueous buffer.
Where [6] appears, read: aqueous medium at pH 7.4 (buffer not named), pH 7.4, aqueous buffer.
Where [7] appears, read: aqueous medium at pH 7.4, pH 7.4, aqueous buffer.

In brackets after ≈: the same amount, converted by molar mass. Marks after values point to notes of the source that are not given here.

The solubility is the concentration that dissolves in the medium under given conditions. With “7‐Chloro‐N‐(5‐chloropyridin‐3‐yl)‐3‐methyl‐2‐(3‐(4‐methylpiperazin‐1‐yl)‐3‐oxopropyl)‐4‐oxo‐1,2,3,4‐tetrahydroquinazoline‐2‐carboxamide [Compound 23]”, in data set [1], the “HLM CLint” value turned out to be 155 µL/min/mg. Moreover, the “Rat Hep CLint” value in the data set “Rat hepatocyte stability” is 16 μL/min/10^6 cells. In data set [2] (pH 7.4), this molecule came in with a solubility of 9.6 µM. Also, the eLogD in the data set “eLogD shake-flask method” is 2.8^[d].

For “7‐Chloro‐N‐(5‐chloropyridin‐3‐yl)‐3‐methyl‐2‐(3‐morpholino‐3‐oxopropyl)‐4‐oxo‐1,2,3,4‐tetrahydroquinazoline‐2‐carboxamide [Compound 21]”, in data set [1], the “HLM CLint” value came out at 95 µL/min/mg. In addition, the “Rat Hep CLint” value in the data set “Rat hepatocyte stability” is 23 μL/min/10^6 cells. Moreover, the solubility in data set [2] (pH 7.4) was 41 µM.

With “7‐Chloro‐N‐(5‐chloropyridin‐3‐yl)‐3‐methyl‐4‐oxo‐2‐(3‐oxo‐3‐(piperazin‐1‐yl)propyl)‐1,2,3,4‐tetrahydroquinazoline‐2‐carboxamide [Compound 22]”, the “HLM CLint” value in data set [1] stood at 94 µL/min/mg. In addition, the “Rat Hep CLint” value in the data set “Rat hepatocyte stability” was found to be 7.7 μL/min/10^6 cells. Besides, in data set [2] (pH 7.4), the solubility is recorded as 178 µM. The eLogD in the data set “eLogD shake-flask method” was 1.7^[d].

The term EC50 denotes the midpoint of the concentration-response curve. The low end stands for an effect from little substance, the high end for a need for much substance. The CC50 is the concentration at which the toxic effect on the cells reaches its halfway point. Regarding `CN1C(=O)c2ccc(Cl)cc2N(C)C1(C)C(=O)Nc1cccc(Cl)c1` (centres unmarked) [Compound 12, 7‐Chloro‐N‐(3‐chlorophenyl)‐1,2,3‐trimethyl‐4‐oxo‐1,2,3,4‐tetrahydroquinazoline‐2‐carboxamide], in data set [1], the microsomal CLint was determined as 122 µL/min/mg. Besides, the EC50 in data set [3] was found to be 115 nM. Besides, in data set [4], the CC50 at 48 h is greater than 40 µM. For the same molecule, the hepatocyte CLint in “Rat hepatocyte stability” worked out at 124 µL/min/1e6 cells. Further, the solubility was 2.6 µM (≈ 0.983 µg/mL) in data set [2] (setting [5]) and less than 5.2 µM in data set [2] (setting [6]). Further, in the data set “eLogD shake-flask method”, the eLogD was 3.9^[d].

In turn, `CCN1c2cc(Cl)ccc2C(=O)N(C)C1(C)C(=O)Nc1cccc(Cl)c1` (centres unmarked) [Compound 13, 7‐Chloro‐N‐(3‐chlorophenyl)‐1‐ethyl‐2,3‐dimethyl‐4‐oxo‐1,2,3,4‐tetrahydroquinazoline‐2‐carboxamide] had an EC50 in data set [3] of 53 nM. In addition, the CC50 at 48 h in data set [4] is greater than 40 µM.

In data set [3], `CN1C(=O)c2ccc(Cl)cc2N(C)C1(C)C(=O)Nc1cncc(Cl)c1` (centres unmarked) [Compound 15, 7‐Chloro‐N‐(5‐chloropyridin‐3‐yl)‐1,2,3‐trimethyl‐4‐oxo‐1,2,3,4‐tetrahydroquinazoline‐2‐carboxamide] yielded an EC50 of 47 nM. Besides, the CC50 at 48 h in data set [4] was greater than 40 µM.

For `CC1(C(=O)Nc2cncc(Cl)c2)Nc2cc(Cl)ccc2C(=O)N1C1CC1` (centres unmarked) [Compound 16, 7‐Chloro‐N‐(5‐chloropyridin‐3‐yl)‐3‐cyclopropyl‐2‐methyl‐4‐oxo‐1,2,3,4‐tetrahydroquinazoline‐2‐carboxamide], the microsomal CLint in data set [1] is 172 µL/min/mg. In data set [3], this molecule yielded an EC50 of 27 nM. Also, the CC50 at 48 h in data set [4] is greater than 40 µM. Moreover, the hepatocyte CLint in “Rat hepatocyte stability” came to 33 µL/min/1e6 cells. The solubility in data set [2] (setting [5]) stood at 7 µM (≈ 2.74 µg/mL). Also, the eLogD in “eLogD shake-flask method” was 3.3^[d].

On to `CN1c2cc(Cl)ccc2C(=O)N(C2CC2)C1(C)C(=O)Nc1cncc(Cl)c1` (centres unmarked) [Compound 17, 7‐Chloro‐N‐(5‐chloropyridin‐3‐yl)‐3‐cyclopropyl‐1,2‐dimethyl‐4‐oxo‐1,2,3,4‐tetrahydroquinazoline‐2‐carboxamide], for which the microsomal CLint in data set [1] came out at 267 µL/min/mg. This molecule yielded an EC50 in data set [3] of 23 nM. Besides, the CC50 at 48 h in data set [4] is greater than 40 µM. In “Rat hepatocyte stability”, the hepatocyte CLint worked out at 47 µL/min/1e6 cells. The concentration in solution in data set [2] (setting [5]) (solubility) was 28 µM (≈ 11.3 µg/mL). Further, the eLogD in the data set “eLogD shake-flask method” was 3.2^[d].

In the case of `CN1C(=O)c2ccc(Cl)cc2N2CCCC12C(=O)Nc1cccc(Cl)c1` (centres unmarked) [Compound 18, 8‐Chloro‐N‐(3‐chlorophenyl)‐4‐methyl‐5‐oxo‐2,3,4,5‐tetrahydropyrrolo[1,2‐a]quinazoline‐3a(1H)‐carboxamide], in data set [3], the EC50 was determined as 30 nM. Also, the CC50 at 48 h in data set [4] was greater than 40 µM.

For `CN1C(=O)c2ccc(Cl)cc2NC1C(=O)Nc1cccc(Cl)c1` (centres unmarked) [Compound 19, 7‐Chloro‐N‐(3‐chlorophenyl)‐3‐methyl‐4‐oxo‐1,2,3,4‐tetrahydroquinazoline‐2‐carboxamide], in data set [3], the EC50 amounted to 80 nM. In data set [4], the CC50 at 48 h was greater than 40 µM.

In turn, `CN1C(=O)c2ccc3cccnc3c2NC1(C)C(=O)Nc1cncc(Cl)c1` (centres unmarked) [Compound 25, N‐(5‐Chloropyridin‐3‐yl)‐2,3‐dimethyl‐4‐oxo‐1,2,3,4‐tetrahydropyrido[3,2‐h]quinazoline‐2‐carboxamide] showed an EC50 in data set [3] of 220 nM. In addition, in data set [4], the CC50 at 48 h was greater than 40 µM.

Regarding `CN1C(=O)c2ccc3ncccc3c2NC1(C)C(=O)Nc1cncc(Cl)c1` (centres unmarked) [Compound 26, N‐(5‐Chloropyridin‐3‐yl)‐2,3‐dimethyl‐4‐oxo‐1,2,3,4‐tetrahydropyrido[2,3‐h]quinazoline‐2‐carboxamide], the EC50 in data set [3] worked out at 90 nM. In addition, the cytotoxic concentration (CC50) at 48 h in data set [4] was greater than 40 µM.

As usually defined, the logD is the decadic logarithm of the distribution of all forms, ionised or not, between an organic phase and buffer at a given pH. Regarding `CC1(C(=O)Nc2cncc(Cl)c2)Nc2cc(Cl)ccc2-c2nccn21` (centres unmarked) [Compound 27, 8‐Chloro‐N‐(5‐chloropyridin‐3‐yl)‐5‐methyl‐5,6‐dihydroimidazo[1,2‐c]quinazoline‐5‐carboxamide], in data set [1], the microsomal CLint was determined as 110 µL/min/mg. The same molecule showed an EC50 in data set [3] of 54 nM. In data set [4], the CC50 at 48 h was greater than 40 µM. The hepatocyte CLint in the data set “Rat hepatocyte stability” amounted to 59 µL/min/1e6 cells. This molecule registered a solubility in data set [2] (setting [6]) of 84 µM (≈ 31.4 µg/mL). Besides, the logD in “eLogD shake-flask method” was 2.7.

On to `CC1(C(=O)Nc2cncc(Cl)c2)Nc2cc(Cl)ccc2C2=NCCN21` (centres unmarked) [Compound 28, 8‐Chloro‐N‐(5‐chloropyridin‐3‐yl)‐5‐methyl‐2,3,5,6‐tetrahydroimidazo[1,2‐c]quinazoline‐5‐carboxamide], for which the microsomal CLint in data set [1] worked out at 37 µL/min/mg. Also, the hepatocyte CLint in “Rat hepatocyte stability” came out at 8.8 µL/min/1e6 cells. The solubility in data set [2] (setting [6]) was greater than 200 µM. In “eLogD shake-flask method”, this molecule displayed a logD of 2.5.

As for `CN1C(=O)c2ccc(-c3cccnc3)cc2NC1(C)C(=O)Nc1cncc(Cl)c1` (centres unmarked) [Compound 29, N‐(5‐Chloropyridin‐3‐yl)‐2,3‐dimethyl‐4‐oxo‐7‐(pyridin‐3‐yl)‐1,2,3,4‐tetrahydroquinazoline‐2‐carboxamide], a half-maximal response in data set [3] (EC50) required 148 nM. Besides, in data set [4], the cytotoxic concentration (CC50) at 48 h was greater than 40 µM.

In the case of `COc1ccc(-c2ccc3c(c2)NC(C)(C(=O)Nc2cncc(Cl)c2)N(C)C3=O)cn1` (centres unmarked) [Compound 30, N‐(5‐Chloropyridin‐3‐yl)‐7‐(6‐methoxypyridin‐3‐yl)‐2,3‐dimethyl‐4‐oxo‐1,2,3,4‐tetrahydroquinazoline‐2‐carboxamide], the response in data set [3] was half-maximal at 143 nM (EC50). Further, the CC50 at 48 h in data set [4] is greater than 40 µM.

`CN1C(=O)c2ccc(-c3ccn(C)n3)cc2NC1(C)C(=O)Nc1cncc(Cl)c1` (centres unmarked) [Compound 31, N‐(5‐Chloropyridin‐3‐yl)‐2,3‐dimethyl‐7‐(1‐methyl‐1H‐pyrazol‐3‐yl)‐4‐oxo‐1,2,3,4‐tetrahydroquinazoline‐2‐carboxamide] registered an EC50 in data set [3] of 808 nM. Besides, in data set [4], the CC50 at 48 h was greater than 40 µM.

In the case of `CN1C(=O)c2ccc(-c3cnn(C)c3)cc2NC1(C)C(=O)Nc1cncc(Cl)c1` (centres unmarked) [Compound 32, N‐(5‐Chloropyridin‐3‐yl)‐2,3‐dimethyl‐7‐(1‐methyl‐1H‐pyrazol‐4‐yl)‐4‐oxo‐1,2,3,4‐tetrahydroquinazoline‐2‐carboxamide], in data set [1], the microsomal CLint worked out at 34 µL/min/mg. This molecule came in with an EC50 in data set [3] of 198 nM. The CC50 at 48 h in data set [4] is greater than 40 µM. In “Rat hepatocyte stability”, the hepatocyte CLint is 5 µL/min/1e6 cells. The molecule further displayed a solubility in data set [2] (setting [7]) of 7 µM (≈ 2.88 µg/mL). For the same molecule, the eLogD in “eLogD shake-flask method” was 2.9^[d].

`COc1ccc2c(c1)NC(C)(C(=O)Nc1cncc(Cl)c1)N(C)C2=O` (centres unmarked) [Compound 34, N‐(5‐Chloropyridin‐3‐yl)‐7‐methoxy‐2,3‐dimethyl‐4‐oxo‐1,2,3,4‐tetrahydroquinazoline‐2‐carboxamide]: the microsomal CLint in data set [1] is 35 µL/min/mg. In data set [3], this molecule returned an EC50 of 74 nM. In addition, in “Rat hepatocyte stability”, the hepatocyte CLint was 16 µL/min/1e6 cells. Moreover, in data set [2] (setting [7]), the solubility was 13.5 µM (≈ 4.87 µg/mL). In “eLogD shake-flask method”, this molecule returned a logD of 2.7.

Molecule `COc1cnc2c(c1)NC(C)(C(=O)Nc1cncc(Cl)c1)N(C)C2=O` (centres unmarked) [Compound 35, N‐(5‐Chloropyridin‐3‐yl)‐7‐methoxy‐2,3‐dimethyl‐4‐oxo‐1,2,3,4‐tetrahydropyrido[3,2‐d]pyrimidine‐2‐carboxamide] gave an EC50 in data set [3] of 458 nM. Besides, the CC50 at 48 h in data set [4] was greater than 40 µM.
